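Method: 48-hour compound exposure of cells in 96-well plates, five concentrations, linear interpolation of endpoints. At the GI50, growth is halved. TGI: concentration producing complete growth inhibition.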
How the values were obtained:
Assay in all cases: NCI tumour cell line growth inhibition, 48 h
LOX IMVI melanoma = system: LOX IMVI melanoma
SNB-75 CNS = system: SNB-75 CNS
SW-620 colon = system: SW-620 colon
SK-OV-3 ovarian = system: SK-OV-3 ovarian
PC-3 prostate = system: PC-3 prostate
HS 578T breast = system: HS 578T breast
HCT-116 colon = system: HCT-116 colon
OVCAR-8 ovarian = system: OVCAR-8 ovarian
SK-MEL-5 melanoma = system: SK-MEL-5 melanoma
SR leukemia = system: SR leukemia

Work on `Cc1cccc2c1O/C(=C\c1ncc([N+](=O)[O-])n1C)C2=O` yielded a GI50 (LOX IMVI melanoma) of 0.092 µM, a TGI (LOX IMVI melanoma) of 0.387 µM and a GI50 (SNB-75 CNS) of 0.781 µM. The TGI (SNB-75 CNS) was 3.36 µM, the GI50 (SW-620 colon) was 0.0888 µM and the TGI (SW-620 colon) was 0.537 µM. For the same compound, the GI50 (SK-OV-3 ovarian) was 0.812 µM, the TGI (SK-OV-3 ovarian) was 3.83 µM and the GI50 (PC-3 prostate) was 0.445 µM. For the same compound, the GI50 (HS 578T breast) was 0.375 µM, the TGI (HS 578T breast) was 4.7 µM and the GI50 (HCT-116 colon) was 0.0557 µM. It also gave a TGI (HCT-116 colon) of 0.422 µM, a GI50 (OVCAR-8 ovarian) of 0.166 µM and a GI50 (SK-MEL-5 melanoma) of 0.152 µM. It also gave a TGI (SK-MEL-5 melanoma) of 0.367 µM and a TGI (SR leukemia) of 0.0699 µM.

Compound `CC1OC(O[C@H]2/C=C/C=C/C=C/C=C/C=C/C=C/C=C/[C@H](C)[C@@H](O)[C@@H](C)[C@H](C)OC(=O)C[C@H](O)C[C@H](O)CC[C@@H](O)[C@H](O)C[C@H](O)C[C@]3(O)C[C@H](O)[C@@H](C(=O)O)[C@H](C2)O3)C(O)C(N)C1O` (stereo partly specified) has a GI50 (LOX IMVI melanoma) of 15.2 µM, a TGI (LOX IMVI melanoma) greater than 50.7 µM and a GI50 (SNB-75 CNS) of 32.7 µM. For the same compound, the TGI (SNB-75 CNS) was 61.7 µM, the TGI (SW-620 colon) was 32.8 µM and the TGI (SK-OV-3 ovarian) was 70.1 µM. For the same compound, the TGI (PC-3 prostate) was 31.8 µM, the TGI (HS 578T breast) was 27.7 µM and the TGI (HCT-116 colon) was 50.2 µM. The GI50 (OVCAR-8 ovarian) was 33 µM, the TGI (OVCAR-8 ovarian) was 57.6 µM and the GI50 (SK-MEL-5 melanoma) was 25.8 µM. For the same compound, the TGI (SK-MEL-5 melanoma) was 59 µM and the TGI (SR leukemia) was 44.8 µM.

For `C[C@@H](Oc1cc(NS(=O)(=O)N2CCC2)nc(SCc2cccc(F)c2F)n1)[C@@H](O)CO`, the GI50 (LOX IMVI melanoma) was greater than 100 µM, the TGI (LOX IMVI melanoma) was greater than 100 µM and the GI50 (SNB-75 CNS) was greater than 100 µM. It also gave a TGI (SNB-75 CNS) greater than 100 µM, a GI50 (SW-620 colon) greater than 100 µM and a TGI (SW-620 colon) greater than 100 µM. For the same compound, the GI50 (SK-OV-3 ovarian) was greater than 100 µM, the TGI (SK-OV-3 ovarian) was greater than 100 µM and the GI50 (PC-3 prostate) was greater than 100 µM. The TGI (PC-3 prostate) was greater than 100 µM, the GI50 (HS 578T breast) was greater than 100 µM and the TGI (HS 578T breast) was greater than 100 µM. It also gave a GI50 (HCT-116 colon) greater than 100 µM, a TGI (HCT-116 colon) greater than 100 µM and a GI50 (OVCAR-8 ovarian) greater than 100 µM. It also gave a TGI (OVCAR-8 ovarian) greater than 100 µM, a GI50 (SK-MEL-5 melanoma) greater than 100 µM and a TGI (SK-MEL-5 melanoma) greater than 100 µM. It also gave a GI50 (SR leukemia) greater than 100 µM and a TGI (SR leukemia) greater than 100 µM.

With `N=C1C(c2nc3ccccc3s2)=C(O)CN1c1ccc(Cl)cc1Cl` the GI50 (LOX IMVI melanoma) was 14.8 µM, the TGI (LOX IMVI melanoma) was 41.2 µM and the GI50 (SNB-75 CNS) was 13.1 µM. For the same compound, the TGI (SNB-75 CNS) was greater than 100 µM, the GI50 (SW-620 colon) was 36.7 µM and the TGI (SW-620 colon) was greater than 100 µM. It also gave a GI50 (SK-OV-3 ovarian) of 32.2 µM, a TGI (SK-OV-3 ovarian) greater than 100 µM and a GI50 (PC-3 prostate) of 11.5 µM. It also gave a TGI (PC-3 prostate) of 29 µM, a GI50 (HS 578T breast) of 25.5 µM and a TGI (HS 578T breast) of 75.9 µM. It also gave a GI50 (HCT-116 colon) of 4.95 µM, a TGI (HCT-116 colon) of 25.6 µM and a GI50 (OVCAR-8 ovarian) of 18.2 µM. It also gave a TGI (OVCAR-8 ovarian) of 47.1 µM, a GI50 (SK-MEL-5 melanoma) of 19.2 µM and a TGI (SK-MEL-5 melanoma) greater than 100 µM. It also gave a GI50 (SR leukemia) of 1.49 µM and a TGI (SR leukemia) of 34.6 µM.

Work on `O=S(=O)(NCCCNc1cc(-c2cn(-c3ccccc3)nc2-c2cccc(O)c2)ccn1)c1cccc2ccccc12` yielded a GI50 (LOX IMVI melanoma) of 1.56 µM, a TGI (LOX IMVI melanoma) of 3.29 µM and a GI50 (SNB-75 CNS) of 2.35 µM. It also gave a TGI (SNB-75 CNS) greater than 100 µM, a GI50 (SW-620 colon) of 2.75 µM and a TGI (SW-620 colon) of 10 µM. The GI50 (SK-OV-3 ovarian) was 4.83 µM, the TGI (SK-OV-3 ovarian) was greater than 100 µM and the GI50 (PC-3 prostate) was 2.87 µM. It also gave a TGI (PC-3 prostate) of 44.9 µM, a GI50 (HS 578T breast) of 1.42 µM and a TGI (HS 578T breast) of 8.39 µM. It also gave a GI50 (HCT-116 colon) of 2.8 µM, a TGI (HCT-116 colon) of 12.4 µM and a GI50 (OVCAR-8 ovarian) of 5.46 µM. It also gave a TGI (OVCAR-8 ovarian) greater than 100 µM, a GI50 (SK-MEL-5 melanoma) of 1.57 µM and a TGI (SK-MEL-5 melanoma) of 3.41 µM. It also gave a GI50 (SR leukemia) of 1.84 µM and a TGI (SR leukemia) of 7.33 µM.

`Oc1cccc(Cn2c(-c3cccc(O)c3O)nc3ccccc32)c1O` showed a GI50 (LOX IMVI melanoma) of 2.84 µM, a TGI (LOX IMVI melanoma) of 15.3 µM and a GI50 (SNB-75 CNS) of 26.2 µM. The TGI (SNB-75 CNS) was greater than 100 µM, the GI50 (SW-620 colon) was 6.82 µM and the TGI (SW-620 colon) was 60.1 µM. For the same compound, the GI50 (SK-OV-3 ovarian) was 13.9 µM, the TGI (SK-OV-3 ovarian) was 75.4 µM and the GI50 (PC-3 prostate) was 6.69 µM. For the same compound, the TGI (PC-3 prostate) was 34.2 µM, the GI50 (HS 578T breast) was 26.9 µM and the TGI (HS 578T breast) was greater than 100 µM. It also gave a GI50 (HCT-116 colon) of 2.24 µM, a TGI (HCT-116 colon) of 10.9 µM and a GI50 (OVCAR-8 ovarian) of 11.7 µM. It also gave a TGI (OVCAR-8 ovarian) of 53.1 µM, a GI50 (SK-MEL-5 melanoma) of 5.76 µM and a TGI (SK-MEL-5 melanoma) of 18.1 µM. It also gave a GI50 (SR leukemia) of 3.42 µM and a TGI (SR leukemia) greater than 100 µM.
